Earlier results as cited in patent US10463642B2, “Methods of treating heart failure diseases using prodrugs of methyl hydrogen fumarate” (priority 2016, dated 2019).
Structures can show the parent of a compound that is named as a salt. Where two headings read alike, the source gives them in different places.

Tests used:
[1] = healthy subjects, steady state
[2] = test system: central nervous system (CNS) inflammation; conditions: murine EAE
[3] = test system: central nervous system (CNS) inflammation; conditions: rat EAE

dose comparable to 240 mg DMF (Tecfidera) by comparing plasma levels of MHF [1] [mg]	SMILES	CNS inflammation in EAE [2]	CNS inflammation in EAE [3]
400	CCN(CC)C(=O)COC(=O)/C=C/C(=O)OC [XP23829, (N,N-diethylcarbamoyl)methyl methyl (2E)but-2-ene-1,4-dioate]	–	–
–	COC(=O)/C=C/C(=O)OC [DMF, Dimethyl fumarate]	inhibit	inhibit
